# Data as given in article PMC9021288 (Nature Communications, 2022).
# Where “and” joins values, the source holds several entries; their conditions need not be identical. Equal entries are not always repeated. Where two headings read alike, the source gives them in different places.
# Legend:
# [1] = test system: artemisinin-resistant P. falciparum Cambodian field isolates; assay: Drug susceptibility of culture-adapted Cambodian isolates; format: cell-based, Plasmodium falciparum
# Experimental: Endpoint readout to determine parasites density was performed with a High-Content Confocal Imaging microscope (Lionheart™ FX Automated Microscope, Biotek), IC50 values were obtained using ICestimator software (http://www.antimalarial-icestimator.net/runregression1.2.htm).
# [2] = target: T1, panel of human receptors and channels (Homo sapiens, UniProt P32239); format: binding; details: CCK2 (CCKB) (h) (agonist radioligand); Rep1, Rep2, Mean
# T1 construct: purchased Eurofins CEREP
# [3] = target: T2, panel of human receptors and channels (Homo sapiens, UniProt P34998); format: binding; details: CRF1 (h) (agonist radioligand); Rep1, Rep2, Mean
# T2 construct: purchased Eurofins CEREP
# [4] = test system: panel of human receptors and channels; format: binding; details: for % Inhibition of Control Specific Binding: Rep1, Rep2, Mean
# [5] = target: T3, panel of human receptors and channels (Homo sapiens, UniProt P04150); format: binding; details: GR (h) (agonist radioligand); Rep1, Rep2, Mean
# T3 construct: purchased Eurofins CEREP
# [6] = target: T4, panel of human receptors and channels (Homo sapiens, UniProt P31645); format: binding; details: 5-HT transporter (h) (antagonist radioligand); Rep1, Rep2, Mean
# T4 construct: purchased Eurofins CEREP
# [7] = target: T5, panel of human receptors and channels (Homo sapiens, UniProt P25021); format: binding; details: H2 (h) (antagonist radioligand); Rep1, Rep2, Mean
# T5 construct: purchased Eurofins CEREP
# [8] = target: T6, panel of human receptors and channels (Homo sapiens, UniProt P30518); format: binding; details: V2 (h) (agonist radioligand); Rep1, Rep2, Mean
# T6 construct: purchased Eurofins CEREP
# [9] = target: T7, panel of human receptors and channels (Homo sapiens, UniProt P43116); format: binding; details: EP2 (h) (agonist radioligand); Rep1, Rep2, Mean
# T7 construct: purchased Eurofins CEREP
# [10] = target: T8, panel of human receptors and channels (Homo sapiens, UniProt P24530); format: binding; details: ETB (h) (agonist radioligand); Rep1, Rep2, Mean
# T8 construct: purchased Eurofins CEREP
# [11] = target: T9, panel of human receptors and channels (Homo sapiens, UniProt Q9Y5N1); format: binding; details: H3 (h) (agonist radioligand); Rep1, Rep2, Mean
# T9 construct: purchased Eurofins CEREP
# [12] = target: T10, panel of human receptors and channels (Homo sapiens, UniProt P35367); format: binding; details: H1 (h) (antagonist radioligand); Rep1, Rep2, Mean
# T10 construct: purchased Eurofins CEREP
# [13] = target: T11, panel of human receptors and channels (Homo sapiens, UniProt P08588); format: binding; details: β1 (h) (agonist radioligand); Rep1, Rep2, Mean
# T11 construct: purchased Eurofins CEREP
# [14] = target: T12, panel of human receptors and channels (Homo sapiens, UniProt P29371); format: binding; details: NK3 (h) (antagonist radioligand); Rep1, Rep2, Mean
# T12 construct: purchased Eurofins CEREP
# [15] = target: T13, panel of human receptors and channels (Homo sapiens, UniProt Q9GZV3); format: binding; details: choline transporter (CHT1) (h) (antagonist radioligand); Rep1, Rep2, Mean
# T13 construct: purchased Eurofins CEREP
# T13 sequence (Q9GZV3 whole entry): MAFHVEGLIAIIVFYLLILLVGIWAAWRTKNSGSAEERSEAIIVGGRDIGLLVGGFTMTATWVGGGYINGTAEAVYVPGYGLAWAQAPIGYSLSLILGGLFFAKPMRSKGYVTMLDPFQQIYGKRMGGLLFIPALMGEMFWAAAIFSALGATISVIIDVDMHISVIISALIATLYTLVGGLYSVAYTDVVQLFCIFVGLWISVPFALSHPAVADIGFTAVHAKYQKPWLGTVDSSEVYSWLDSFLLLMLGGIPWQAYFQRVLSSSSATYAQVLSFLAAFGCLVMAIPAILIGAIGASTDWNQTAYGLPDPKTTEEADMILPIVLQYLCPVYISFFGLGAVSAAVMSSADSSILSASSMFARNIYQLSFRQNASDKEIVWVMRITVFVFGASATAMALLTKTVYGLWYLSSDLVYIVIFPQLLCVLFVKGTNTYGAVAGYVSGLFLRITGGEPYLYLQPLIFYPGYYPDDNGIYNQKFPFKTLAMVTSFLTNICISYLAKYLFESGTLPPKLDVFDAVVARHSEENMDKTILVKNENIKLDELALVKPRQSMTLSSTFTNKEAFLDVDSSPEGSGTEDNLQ
# T4 sequence (P31645 whole entry): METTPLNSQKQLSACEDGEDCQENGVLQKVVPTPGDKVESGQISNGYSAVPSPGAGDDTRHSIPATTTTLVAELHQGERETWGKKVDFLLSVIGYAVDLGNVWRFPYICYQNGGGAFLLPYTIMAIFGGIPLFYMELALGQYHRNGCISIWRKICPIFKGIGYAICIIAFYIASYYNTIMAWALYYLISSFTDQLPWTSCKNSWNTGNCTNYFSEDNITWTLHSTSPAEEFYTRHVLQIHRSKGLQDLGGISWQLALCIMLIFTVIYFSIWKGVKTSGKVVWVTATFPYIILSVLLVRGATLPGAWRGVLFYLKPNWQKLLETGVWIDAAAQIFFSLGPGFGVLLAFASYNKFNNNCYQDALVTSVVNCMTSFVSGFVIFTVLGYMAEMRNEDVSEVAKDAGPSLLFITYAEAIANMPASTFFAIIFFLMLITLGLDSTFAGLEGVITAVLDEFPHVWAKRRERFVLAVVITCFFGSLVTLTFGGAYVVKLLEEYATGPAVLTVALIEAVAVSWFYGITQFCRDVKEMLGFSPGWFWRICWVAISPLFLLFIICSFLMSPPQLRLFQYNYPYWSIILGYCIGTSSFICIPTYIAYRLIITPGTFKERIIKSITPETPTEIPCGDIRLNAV
# T9 sequence (Q9Y5N1 whole entry): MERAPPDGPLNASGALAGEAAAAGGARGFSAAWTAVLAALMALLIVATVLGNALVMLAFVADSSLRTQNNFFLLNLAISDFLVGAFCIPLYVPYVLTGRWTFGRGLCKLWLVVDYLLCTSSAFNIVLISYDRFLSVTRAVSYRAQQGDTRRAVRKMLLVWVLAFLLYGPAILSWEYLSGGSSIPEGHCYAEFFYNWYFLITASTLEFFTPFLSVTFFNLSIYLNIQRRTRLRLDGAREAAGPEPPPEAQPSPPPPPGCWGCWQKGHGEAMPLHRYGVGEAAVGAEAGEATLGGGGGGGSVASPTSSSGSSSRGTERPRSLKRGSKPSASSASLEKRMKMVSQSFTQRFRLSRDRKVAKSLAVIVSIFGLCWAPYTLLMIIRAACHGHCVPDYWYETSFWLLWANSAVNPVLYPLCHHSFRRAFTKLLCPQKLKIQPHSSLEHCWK
# T7 sequence (P43116 whole entry): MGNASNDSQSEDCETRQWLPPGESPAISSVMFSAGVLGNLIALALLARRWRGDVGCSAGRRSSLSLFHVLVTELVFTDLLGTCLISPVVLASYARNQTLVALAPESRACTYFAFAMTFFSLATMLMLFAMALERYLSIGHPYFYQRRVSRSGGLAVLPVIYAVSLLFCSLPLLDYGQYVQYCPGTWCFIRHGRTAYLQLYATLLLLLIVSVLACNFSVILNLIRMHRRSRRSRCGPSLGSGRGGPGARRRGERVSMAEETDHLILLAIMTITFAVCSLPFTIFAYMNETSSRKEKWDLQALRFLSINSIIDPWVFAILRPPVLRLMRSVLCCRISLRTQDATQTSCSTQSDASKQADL
# T12 sequence (P29371 whole entry): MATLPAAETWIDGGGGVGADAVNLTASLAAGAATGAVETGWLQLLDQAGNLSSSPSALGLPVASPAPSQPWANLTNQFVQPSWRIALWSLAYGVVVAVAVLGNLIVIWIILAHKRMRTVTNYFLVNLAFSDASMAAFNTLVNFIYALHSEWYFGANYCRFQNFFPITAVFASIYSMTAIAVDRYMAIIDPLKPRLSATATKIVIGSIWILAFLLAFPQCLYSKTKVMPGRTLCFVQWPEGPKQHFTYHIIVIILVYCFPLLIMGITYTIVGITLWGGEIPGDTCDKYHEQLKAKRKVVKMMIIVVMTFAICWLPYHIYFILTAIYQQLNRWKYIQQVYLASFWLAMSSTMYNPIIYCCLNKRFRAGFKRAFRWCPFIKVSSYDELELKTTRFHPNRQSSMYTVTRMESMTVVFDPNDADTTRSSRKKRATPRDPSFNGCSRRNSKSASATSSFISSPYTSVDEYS
# T6 sequence (P30518 whole entry): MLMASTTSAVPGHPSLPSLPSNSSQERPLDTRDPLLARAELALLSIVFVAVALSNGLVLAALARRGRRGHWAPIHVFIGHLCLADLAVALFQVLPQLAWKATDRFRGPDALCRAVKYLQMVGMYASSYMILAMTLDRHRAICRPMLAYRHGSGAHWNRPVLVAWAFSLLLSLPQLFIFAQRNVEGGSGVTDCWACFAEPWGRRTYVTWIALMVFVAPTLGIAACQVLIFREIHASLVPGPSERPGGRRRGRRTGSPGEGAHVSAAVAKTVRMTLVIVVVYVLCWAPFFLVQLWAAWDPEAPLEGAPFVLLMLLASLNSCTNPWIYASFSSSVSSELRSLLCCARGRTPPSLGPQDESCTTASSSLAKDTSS
# T2 sequence (P34998 24-415): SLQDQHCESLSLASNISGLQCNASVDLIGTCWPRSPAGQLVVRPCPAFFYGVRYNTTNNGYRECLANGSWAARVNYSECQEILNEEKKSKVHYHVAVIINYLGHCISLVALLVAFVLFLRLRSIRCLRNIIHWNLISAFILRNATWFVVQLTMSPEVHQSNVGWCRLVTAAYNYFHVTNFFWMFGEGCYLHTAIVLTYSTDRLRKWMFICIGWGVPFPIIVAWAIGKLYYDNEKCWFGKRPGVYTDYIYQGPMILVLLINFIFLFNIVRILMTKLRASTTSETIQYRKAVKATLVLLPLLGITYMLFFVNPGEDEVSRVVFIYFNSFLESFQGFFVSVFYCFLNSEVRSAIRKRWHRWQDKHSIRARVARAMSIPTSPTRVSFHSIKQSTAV
# T5 sequence (P25021 whole entry): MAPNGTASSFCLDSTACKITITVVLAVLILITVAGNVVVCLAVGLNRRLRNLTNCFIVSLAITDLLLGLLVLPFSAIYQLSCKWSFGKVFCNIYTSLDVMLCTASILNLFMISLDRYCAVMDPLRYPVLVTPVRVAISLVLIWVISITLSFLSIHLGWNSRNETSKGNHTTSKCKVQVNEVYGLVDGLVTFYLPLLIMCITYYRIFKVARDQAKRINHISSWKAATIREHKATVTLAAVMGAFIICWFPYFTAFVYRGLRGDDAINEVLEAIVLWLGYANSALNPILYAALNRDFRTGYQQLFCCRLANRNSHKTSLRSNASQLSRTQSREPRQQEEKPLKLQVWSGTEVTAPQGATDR
# T1 sequence (P32239 whole entry): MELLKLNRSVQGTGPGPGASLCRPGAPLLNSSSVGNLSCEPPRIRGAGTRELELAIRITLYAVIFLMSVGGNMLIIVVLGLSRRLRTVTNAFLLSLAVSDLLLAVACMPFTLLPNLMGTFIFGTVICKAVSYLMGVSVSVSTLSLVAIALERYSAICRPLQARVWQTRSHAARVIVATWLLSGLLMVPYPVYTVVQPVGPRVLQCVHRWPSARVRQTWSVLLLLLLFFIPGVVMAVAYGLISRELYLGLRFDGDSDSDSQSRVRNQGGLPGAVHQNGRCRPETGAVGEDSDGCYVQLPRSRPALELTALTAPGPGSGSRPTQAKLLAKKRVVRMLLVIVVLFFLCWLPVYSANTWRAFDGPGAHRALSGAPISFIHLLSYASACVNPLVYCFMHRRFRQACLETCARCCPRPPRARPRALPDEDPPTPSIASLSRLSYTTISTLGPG
# T11 sequence (P08588 whole entry): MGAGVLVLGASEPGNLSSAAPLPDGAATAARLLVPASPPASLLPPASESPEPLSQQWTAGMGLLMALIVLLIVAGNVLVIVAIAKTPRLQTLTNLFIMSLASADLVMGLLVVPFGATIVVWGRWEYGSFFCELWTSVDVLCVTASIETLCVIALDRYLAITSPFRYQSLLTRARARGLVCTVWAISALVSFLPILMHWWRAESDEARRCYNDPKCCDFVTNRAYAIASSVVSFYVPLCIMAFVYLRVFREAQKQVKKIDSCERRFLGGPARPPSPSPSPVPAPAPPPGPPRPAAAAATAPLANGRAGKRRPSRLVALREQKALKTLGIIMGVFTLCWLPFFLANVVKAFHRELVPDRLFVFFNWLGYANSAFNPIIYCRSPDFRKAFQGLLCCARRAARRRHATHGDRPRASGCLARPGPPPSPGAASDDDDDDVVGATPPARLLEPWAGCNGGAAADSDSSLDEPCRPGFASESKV
# T8 sequence (P24530 27-442): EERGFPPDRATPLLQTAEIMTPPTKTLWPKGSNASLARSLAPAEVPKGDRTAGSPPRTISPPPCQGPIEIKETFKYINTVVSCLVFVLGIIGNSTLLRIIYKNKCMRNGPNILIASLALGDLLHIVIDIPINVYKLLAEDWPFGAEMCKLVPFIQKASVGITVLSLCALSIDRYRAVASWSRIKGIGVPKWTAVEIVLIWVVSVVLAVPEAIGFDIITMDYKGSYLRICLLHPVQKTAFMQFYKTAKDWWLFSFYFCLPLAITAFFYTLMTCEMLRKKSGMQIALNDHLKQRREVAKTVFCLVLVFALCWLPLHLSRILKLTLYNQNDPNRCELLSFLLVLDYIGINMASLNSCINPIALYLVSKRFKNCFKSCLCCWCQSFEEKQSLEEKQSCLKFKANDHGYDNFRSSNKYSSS
smiles,measurement,setting,value
C[C@@H](CNC(=O)[C@H](O)C(C)(C)CO)NC(=O)c1cc(F)c(F)cc1F [MMV693183],sensitivity of isolates,[1],sensitive to MMV693183
same,IC50,"[1]; ART isolates, read-out: IC50s",1.36 nM and 1.4 nM and 1.6 nM and 1.2 nM and 1.3 nM
same,IC50,"[1]; ART-PPQ-AQ isolates, read-out: IC50s",0.84 nM and 1.26 nM and 1.36 nM and 1.54 nM and 1.3 nM and 1.03 nM and 1.1 nM and 1.39 nM
same,IC50,"[1]; Cambodian ACT-resistant isolates, read-out: IC50",0.21 to 1.84 nM
same,IC50,"[1]; MQ-ART isolates, read-out: IC50s",1.48 nM
same,IC50,"[1]; WT isolates, read-out: IC50s",1.57 nM and 1.28 nM and 1.01 nM and 1.31 nM and 1.26 nM and 1.38 nM and 1.32 nM and 1.61 nM
same,% Inhibition of Control Specific Binding,[2],10.5% and 16.3% and 13.4%
same,% Inhibition of Control Specific Binding,[3],16.8% and 10.5% and 13.65%
same,"induction, GABA (non-selective)",[4]; 10 µM,25.2%
same,"inhibition in cross-reactivity panel of human receptors, enzymes, or channels",[4]; 10 µM,< 50%
same,"inhibition/induction, all other binding assays",[4]; 10 µM,less than 25%
same,% Inhibition of Control Specific Binding,[4]; AMPA (agonist radioligand),-3.3% and 6.3% and 1.5%
same,% Inhibition of Control Specific Binding,[4]; BZD (central) (agonist radioligand),-6% and -2.2% and -4.1%
same,% Inhibition of Control Specific Binding,"[4]; Ca2+ channel (L, dihydropyridine site) (antagonist radioligand)",-8.8% and -2.1% and -5.45%
same,% Inhibition of Control Specific Binding,"[4]; Ca2+ channel (L, diltiazem site) (benzothiazepines) (antagonist radioligand)",-0.7% and -8.5% and -4.6%
same,% Inhibition of Control Specific Binding,"[4]; Ca2+ channel (L, verapamil site) (phenylalkylamine) (antagonist radioligand)",-8.2% and -3.1% and -5.65%
same,% Inhibition of Control Specific Binding,[4]; Cl- channel (GABA-gated) (antagonist radioligand),3.7% and 11.5% and 7.6%
same,% Inhibition of Control Specific Binding,[4]; D2S (h) (antagonist radioligand),8.5% and 10.6% and 9.55%
same,% Inhibition of Control Specific Binding,[4]; GABA transporter (antagonist radioligand),-5.4% and -8% and -6.7%
same,% Inhibition of Control Specific Binding,[4]; IP (PGI2) (h) (agonist radioligand),1.7% and -1% and 0.35%
same,% Inhibition of Control Specific Binding,[4]; KV channel (antagonist radioligand),1.3% and -0.6% and 0.35%
same,% Inhibition of Control Specific Binding,[4]; MT1 (ML1A) (h) (agonist radioligand),-0.2% and 6.2% and 3%
same,% Inhibition of Control Specific Binding,[4]; NMDA (antagonist radioligand),-6% and -8.3% and -7.15%
same,% Inhibition of Control Specific Binding,[4]; Na+ channel (site 2) (antagonist radioligand),17.2% and 13.3% and 15.25%
same,% Inhibition of Control Specific Binding,[4]; P2Y (agonist radioligand),-7.4% and -3% and -5.2%
same,% Inhibition of Control Specific Binding,[4]; SKCa channel (antagonist radioligand),-1.2% and 2.1% and 0.45%
same,% Inhibition of Control Specific Binding,[4]; Y (non-selective) (agonist radioligand),-24.9% and -15.9% and -20.4%
same,% Inhibition of Control Specific Binding,[4]; kainate (agonist radioligand),-0.8% and 7.7% and 3.45%
same,% Inhibition of Control Specific Binding,[4]; opioid (non-selective) (antagonist radioligand),4.1% and 0.3% and 2.2%
same,% Inhibition of Control Specific Binding,[4]; α1 (non-selective) (antagonist radioligand),2.6% and 11.7% and 7.15%
same,% Inhibition of Control Specific Binding,[4]; α2 (non-selective) (antagonist radioligand),-11.5% and -12.5% and -12%
same,% Inhibition of Control Specific Binding,[5],-7.3%
same,% Inhibition of Control Specific Binding,[6],-13.7% and -4.2% and -8.95%
same,% Inhibition of Control Specific Binding,[7],-9.2% and -5.1% and -7.15%
same,% Inhibition of Control Specific Binding,[8],3.4% and 12.9% and 8.15%
same,% Inhibition of Control Specific Binding,[9],-1.6% and 2.2% and 0.3%
same,% Inhibition of Control Specific Binding,[10],-8.6%
same,% Inhibition of Control Specific Binding,[11],-9.8% and -18.8% and -14.3%
same,% Inhibition of Control Specific Binding,[12],6.2% and 8% and 7.1%
same,% Inhibition of Control Specific Binding,[13],13.7% and 4.9% and 9.3%
same,% Inhibition of Control Specific Binding,[14],-0.9% and 5.3% and 2.2%
same,% Inhibition of Control Specific Binding,[15],2.6% and 4.5% and 3.55%
